Test system: CGS 21680-induced catalepsy in mice
Assay: Activity on CGS 21680-induced Catalepsy
Format: in vivo, mouse (male ddY)
Settings: 10 mg/kg oral; for Total score (catalepsy): 10 animals, maximum 50 points, control 48; for Number of Animals showing remission: catalepsy score 4 points or less in 10 cases; for inhibition in vivo at 10 mg/kg: Mus musculus, CGS 21680-induced catalepsy, read-out: Remission ratio (%)
Experimental: Activity on CGS 21680-induced Catalepsy
Parkinson's disease is motor deficit based on the degeneration and cell death of the nigrostriatal dopaminergic neuron. […] [Journal of Neuroscience, 16: 605 (1996)]. Accordingly, it is considered that adenosine A2A receptor agonists positively regulate the output of the striopallidal GABAergic neurons and, as a result, catalepsy is induced by the administration of CGS 21680.
This test was carried out using 10 animals per group of male ddY mice of 5 week age (22 to 25 g in body weight, Japan SLC). CGS 21680 (manufactured by RBI) was dissolved in a physiological saline (manufactured by Otsuka Pharmaceutical), and 10 μg/20 μl of the solution was injected into mouse intracerebro-ventricle. Test compounds were used by suspending them in distilled water containing 0.3% of polyoxyethylene(20)sorbitan monooleate (hereinafter referred to as "Tween 80") (manufactured by Otsuka Pharmaceutical). […] One hour after the administration of the test compound, only forelimbs or only hindlimbs of each animal were laid on a vertically arranged stand made of acryl, having a size of 4.5 cm in height and 1.0 cm in width, to measure catalepsy symptoms. All of the compounds were administered orally in a dose of 10 mg/kg.
The effect was judged by total catalepsy scores of 10 animals in one group (the maximum is 50 points). When the total score was 40 points or less, the activity of drugs was judged positive. The number of animals showing remission of catalepsy was expressed by the number of cases in which the catalepsy score was 4 points or less in 10 cases. The catalepsy remission ratio was expressed as the percentage of the total score in the test compound-administered group to the total score in the control group.

In the case of C=CCCN1CCN(c2cc3nc(-c4ccco4)nn3c(N)n2)CC1 [Compound 125, 5-Amino-2-(2-furyl)-7-(4-homoallylpiperazinyl)[1,2,4]triazolo[1,5-c]pyrimidine], the “Total score (catalepsy)” value is reported as 13, the “Number of Animals showing remission” value is reported as 10 and the inhibition in vivo at 10 mg/kg is reported as 74%.

With Nc1nc(SCc2ccccc2Cl)cc2nc(-c3ccco3)nn12 [Compound 200, 5-Amino-7-(2-chlorobenzylthio)-2-(2-furyl)[1,2,4]triazolo[1,5-c]pyrimidine] the “Total score (catalepsy)” value was 14, the “Number of Animals showing remission” value was 9 and the inhibition in vivo at 10 mg/kg was 70%.

Nc1nc(N2CCN(c3nc4ccccc4s3)CC2)cc2nc(-c3ccco3)nn12 [Compound 95, 5-Amino-7-(4-(2-benzothiazolyl)piperazinyl)-2-(2-furyl)[1,2,4]triazolo[1,5-c]pyrimidine] was tested, and the “Total score (catalepsy)” value was 16, the “Number of Animals showing remission” value was 8 and the inhibition in vivo at 10 mg/kg was 66%.

With COC(=O)c1ccc(CSc2cc3nc(-c4ccco4)nn3c(N)n2)cc1 [Compound 190, 5-Amino-2-(2-furyl)-7-(4-methoxycarbonylbenzylthio)[1,2,4]triazolo[1,5-c]pyrimidine] the “Total score (catalepsy)” value was 13, the “Number of Animals showing remission” value was 10 and the inhibition in vivo at 10 mg/kg was 72%.

In the case of CCC(C)N1CCN(c2cc3nc(-c4ccco4)nn3c(N)n2)CC1 (racemic) [Compound 140, (±)-5-Amino-2-(2-furyl)-7-(4-(1-methylpropyl)piperazinyl)[1,2,4]triazolo[1,5-c]pyrimidine], the “Total score (catalepsy)” value is reported as 13, the “Number of Animals showing remission” value is reported as 10 and the inhibition in vivo at 10 mg/kg is reported as 74%.

COCCN1CCN(c2cc3nc(-c4ccco4)nn3c(N)n2)CC1 [Compound 74, 5-Amino-7-[4-(2-methoxyethyl)piperazinyl]-2-(2-furyl)[1,2,4]triazolo[1,5-c]pyrimidine] was tested, and the “Total score (catalepsy)” value was 0, the “Number of Animals showing remission” value was 10 and the inhibition in vivo at 10 mg/kg was 98%.

Nc1ncc(C(=O)N2CCCCC2)c2nc(-c3ccco3)nn12 [Compound 175] was tested, and the “Total score (catalepsy)” value was 12, the “Number of Animals showing remission” value was 10 and the inhibition in vivo at 10 mg/kg was 74%.

For CCN1CCN(c2cc3nc(-c4ccco4)nn3c(N)n2)CC1 [Compound 60, 5-Amino-7-(4-ethylpiperazinyl)-2-(2-furyl)[1,2,4]triazolo[1,5-c]pyrimidine], the “Total score (catalepsy)” value was 10, the “Number of Animals showing remission” value was 8 and the inhibition in vivo at 10 mg/kg was 76%.

In the case of Nc1ncc(C(=O)N2CCOCC2)c2nc(-c3ccco3)nn12 [Compound 177], the “Total score (catalepsy)” value is reported as 13, the “Number of Animals showing remission” value is reported as 9 and the inhibition in vivo at 10 mg/kg is reported as 72%.

Nc1nc(N2CCN(Cc3ccsc3)CC2)cc2nc(-c3ccco3)nn12 [Compound 146] was tested, and the “Total score (catalepsy)” value was 3, the “Number of Animals showing remission” value was 10 and the inhibition in vivo at 10 mg/kg was 94%.

For COCCOCCN1CCN(c2cc3nc(-c4ccco4)nn3c(N)n2)CC1 [Compound 104, 5-Amino-2-(2-furyl)-7-(4-(2-(2-methoxyethoxy)ethyl)piperazinyl)[1,2,4]triazolo[1,5-c]pyrimidine], the “Total score (catalepsy)” value was 4, the “Number of Animals showing remission” value was 10 and the inhibition in vivo at 10 mg/kg was 92%.

With COCCN1CCN(c2nc(N)n3nc(-c4ccco4)nc3c2C)CC1 [Compound 223, 5-Amino-2-(2-furyl)-7-(4-(2-methoxyethyl)piperazinyl)-8-methyl[1,2,4]triazolo[1,5-c]pyrimidine] the “Total score (catalepsy)” value was 15, the “Number of Animals showing remission” value was 9 and the inhibition in vivo at 10 mg/kg was 68%.

With Cc1c(N2CCN(CCO)CC2)nc(N)n2nc(-c3ccco3)nc12 [Compound 222, 5-Amino-2-(2-furyl)-7-(4-(2-hydroxyethyl)piperazinyl)-8-methyl[1,2,4]triazolo[1,5-c]pyrimidine] the “Total score (catalepsy)” value was 9, the “Number of Animals showing remission” value was 10 and the inhibition in vivo at 10 mg/kg was 80%.

Nc1nc(N2CCN(c3ncccn3)CC2)cc2nc(-c3ccco3)nn12 [Compound 64, 5-Amino-2-(2-furyl)-7-[4-(2-pyrimidyl)piperazinyl][1,2,4]triazolo[1,5-c]pyrimidine] was tested, and the “Total score (catalepsy)” value was 5, the “Number of Animals showing remission” value was 10 and the inhibition in vivo at 10 mg/kg was 88%.

For Nc1ncc(C=O)c2nc(-c3ccco3)nn12 [Compound 163, 5-Amino-8-formyl-2-(2-furyl)[1,2,4]triazolo[1,5-c]pyrimidine], the “Total score (catalepsy)” value was 3, the “Number of Animals showing remission” value was 10 and the inhibition in vivo at 10 mg/kg was 94%.

With Nc1nc(Oc2ccc(Br)cc2)cc2nc(-c3ccco3)nn12 [Compound 228] the “Total score (catalepsy)” value was 14, the “Number of Animals showing remission” value was 8 and the inhibition in vivo at 10 mg/kg was 72%.

With CC(C)CN1CCN(c2cc3nc(-c4ccco4)nn3c(N)n2)CC1 [Compound 136, 5-Amino-2-(2-furyl)-7-(4-(2-methylpropyl)piperazinyl)[1,2,4]triazolo[1,5-c]pyrimidine] the “Total score (catalepsy)” value was 1, the “Number of Animals showing remission” value was 10 and the inhibition in vivo at 10 mg/kg was 98%.

Nc1nc(N2CCN(CCO)CC2)cc2nc(-c3ccco3)nn12 [Compound 62, 5-Amino-2-(2-furyl)-7-[4-(2-hydroxyethyl)piperazinyl][1,2,4]triazolo[1,5-c]pyrimidine] was tested, and the “Total score (catalepsy)” value was 4, the “Number of Animals showing remission” value was 10 and the inhibition in vivo at 10 mg/kg was 88%.

For Cc1ncc(CN2CCN(c3cc4nc(-c5ccco5)nn4c(N)n3)CC2)s1 [Compound 145, 5-Amino-2-(2-furyl)-7-(4-(2-methylthiazol-5-ylmethyl)piperazinyl)[1,2,4]triazolo[1,5-c]pyrimidine], the “Total score (catalepsy)” value was 3, the “Number of Animals showing remission” value was 10 and the inhibition in vivo at 10 mg/kg was 92%.

For Nc1nc(SCc2ccccc2F)cc2nc(-c3ccco3)nn12 [Compound 201, 5-Amino-7-(2-fluorobenzylthio)-2-(2-furyl)[1,2,4]triazolo[1,5-c]pyrimidine], the “Total score (catalepsy)” value was 10, the “Number of Animals showing remission” value was 10 and the inhibition in vivo at 10 mg/kg was 78%.

In the case of Nc1nc(N2CCN(CCCCF)CC2)cc2nc(-c3ccco3)nn12 [Compound 128, 5-Amino-7-(4-(4-fluorobutyl)piperazinyl)-2-(2-furyl)[1,2,4]triazolo[1,5-c]pyrimidine], the “Total score (catalepsy)” value is reported as 9, the “Number of Animals showing remission” value is reported as 10 and the inhibition in vivo at 10 mg/kg is reported as 80%.

In the case of CC(C)N1CCN(c2cc3nc(-c4ccco4)nn3c(N)n2)CC1 [Compound 139, 5-Amino-2-(2-furyl)-7-(4-isopropylpiperazinyl)[1,2,4]triazolo[1,5-c]pyrimidine], the “Total score (catalepsy)” value is reported as 10, the “Number of Animals showing remission” value is reported as 9 and the inhibition in vivo at 10 mg/kg is reported as 80%.

In the case of Nc1nc(N2CCN(Cc3csnn3)CC2)cc2nc(-c3ccco3)nn12 [Compound 143, 5-Amino-2-(2-furyl)-7-(4-(1,2,3-thiadiazol-4-ylmethyl)piperazinyl)-2-(2-furyl)[1,2,4]triazolo[1,5-c]pyrimidine], the “Total score (catalepsy)” value is reported as 0, the “Number of Animals showing remission” value is reported as 10 and the inhibition in vivo at 10 mg/kg is reported as 98%.

With Nc1nc(SCc2ccncc2)cc2nc(-c3ccco3)nn12 [Compound 181, 5-Amino-2-(2-furyl)-7-(4-picolylthio)[1,2,4]triazolo[1,5-c]pyrimidine] the “Total score (catalepsy)” value was 14, the “Number of Animals showing remission” value was 8 and the inhibition in vivo at 10 mg/kg was 72%.

In the case of Nc1nc(SCc2ccccc2C=O)cc2nc(-c3ccco3)nn12 [Compound 213, 5-Amino-7-(2-formylbenzylthio)-2-(2-furyl)[1,2,4]triazolo[1,5-c]pyrimidine], the “Total score (catalepsy)” value is reported as 15, the “Number of Animals showing remission” value is reported as 10 and the inhibition in vivo at 10 mg/kg is reported as 70%.

— patent US6222035A, “[1,2,4] triazolo [1,5-C] pyrimidine derivatives” (Kyowa Hakko Kogyo Co., Ltd., priority 1997, dated 2001)
